Source: patent publication US4260623A, “Hexahydro-1-arylspiro(3H-oxazolo(3,4-A)pyridine-3,4'-piperidene) antidepressants, pharmaceutical compositions thereof and method of use thereof” (Warner-Lambert Company, priority 1979, dated 1981)

Legend:
[1] = tested on: neuronal-uptake of serotonin; test: inhibition of the neuronal-uptake of serotonin (carbon-14 content of the spleen); type: in vivo; settings: Mus musculus, 1 h, at 50 mg/kg oral, male mice, serotonin-14C i.v. one hour after dosing, vs vehicle control, read-out: % Inhibition of Amine Uptake, Serotonin
Experimental: (§1) Int. Pharmacoldyn 225, 317-329 (1977)].
(§2) According to this procedure, male mice weighing approximately 25 grams are fasted overnight, then groups of five or more mice are dosed with the test compound or methocel vehicle at 50 mg/kg by oral route. After an interval of one hour, the mice are given an intravenous injection of a saline solution containing 0.5 μCi of norepinephrine-^3 H, 0.5 μCi of serotonin^14 C, and 1 mg/ml of ascorbic acid. The mice are then sacrificed about 15 minutes later, their hearts and spleens rinsed and weighed, and dissolved in a tissue solubilizer. The tritium content of the hearts and carbon-14 content of the spleen are determined by scintillation counting. The percent inhibition of uptake in comparison with the vehicle control group is then recorded.

[2] = tested on: neuronal-uptake of norepinephrine; test: inhibition of the neuronal-uptake of norepinephrine (tritium content of the hearts); type: in vivo; settings: Mus musculus, 1 h; at 50 mg/kg oral, male mice, heart; norepinephrine-3H i.v. one hour after dosing; vs vehicle control; read-out: % Inhibition of Amine Uptake, Norepinephrine
Experimental: as §1, §2

SMILES | inhibition at 50 mg/kg [1] | inhibition at 50 mg/kg [2]
c1ccc(C2OC3(CCNCC3)N3CCCCC23)cc1 (stereo not shown) [Example 2, Hexahydro-1-phenylspiro[3H-oxazolo[3,4-a]pyridine-3,4'-piperidine]] | 83% | 70%
CN1CCC2(CC1)OC(c1ccccc1)C1CCCCN12 (stereo not shown) [Example 3, Hexahydro-1'-methyl-1-phenylspiro[3H-oxazolo[3,4-a]pyridine-3,4'-piperidine]] | 73% | 73%
Fc1cccc(C2OC3(CCN(Cc4ccccc4)CC3)N3CCCCC23)c1 (stereo not shown) [Example 4, hexahydro-1'-benzyl-1-(3-fluorophenyl)spiro[3H-oxazolo[3,4-a]pyridine-3,4'-piperidine]] | 79% | 58%
Fc1cccc(C2OC3(CCNCC3)N3CCCCC23)c1 (stereo not shown) [Example 5, hexahydro-1-(3-fluorophenyl)spiro[3H-oxazolo[3,4-a]pyridine-3,4'-piperidine]] | 89% | 70%
COc1ccccc1C1OC2(CCNCC2)N2CCCCC12 (stereo not shown) [Example 7, hexahydro-1-(2-methoxyphenyl)spiro[3H-oxazolo[3,4-a]pyridine-3,4'-piperidine]] | 71% | 67%
FC(F)(F)c1cccc(C2OC3(CCNCC3)N3CCCCC23)c1 (stereo not shown) [Example 9, hexahydro-1-[3-(trifluoromethyl)phenyl]spiro[3H-oxazolo[3,4-a]pyridine-3,4'piperidine]] | 86% | 64%
Fc1ccc(C2OC3(CCNCC3)N3CCCCC23)cc1 (stereo not shown) [Example 11, Hexahydro-1-(4-fluorophenyl)spiro[3H-oxazolo[3,4-a]pyridine-3,4'-piperidine]] | 89% | 73%
Clc1ccc(C2OC3(CCN(Cc4ccccc4)CC3)N3CCCCC23)cc1 (stereo not shown) [Example 12, hexahydro-1'-benzyl-1-(4-chlorophenyl)spiro[3H-oxazolo[3,4-a]pyridine-3,4'-piperidine]] | 84% | 59%
CN1CCC2(CC1)OC(c1ccc(Cl)cc1)C1CCCCN12 (stereo not shown) [Example 13, hexahydro-1'-methyl-1-(4-chlorophenyl)spiro[3H-oxazolo[3,4-a]pyridine-3,4'-piperidine]] | 91% | 77%
COc1ccc(C2OC3(CCNCC3)N3CCCCC23)cc1 (stereo not shown) [Example 14, Hexahydro-1-(4-methoxyphenyl)spiro[3H-oxazolo[3,4-a]pyridine-3,4'-piperidine]] | 89% | 57%
c1ccc(C2OC3(CCN(CC4CC4)CC3)N3CCCCC23)cc1 (stereo not shown) [Example 15, hexahydro-1'-(cyclopropylmethyl)-1-phenylspiro[3H-oxazolo[3,4-a]pyridine-3,4'-piperidine]] | 77% | 62%
